The supplement of paper PMC10627819

What was measured:
Assay in all cases: Bliss interaction score (quartile over a dose matrix) (fitness difference); higher = more antagonism (negative = synergy)
B. subtilis 168 = system: B. subtilis 168
Summary of the method: (§1)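 Quartiles summarise the Bliss score over technical, biological and donor/recipient replicates, where the score is observed minus expected fitness under a product model. Expected fitness uses single-drug values inferred from combination data. Fitness is OD595 at entry into stationary phase over the plate's robust no-drug mean, capped at 1.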

S. aureus Newman = system: S. aureus Newman
Summary of the method: as §1

S. aureus DSM 20231 = system: S. aureus DSM 20231
Summary of the method: as §1

S. pneumoniae D39V = system: S. pneumoniae D39V
Summary of the method: as §1
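Note: first quartile when negative (synergy) and third quartile when positive (antagonism).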

| Structure (SMILES) | Bliss interaction score (B. subtilis 168) | Bliss interaction score (S. aureus Newman) | Bliss interaction score (S. aureus DSM 20231) | Bliss interaction score (S. pneumoniae D39V) | Bliss interaction score (B. subtilis 168; main component drawn) | Bliss interaction score (S. aureus Newman; main component drawn) | Bliss interaction score (S. aureus DSM 20231; main component drawn) | Bliss interaction score (S. pneumoniae D39V; main component drawn) |
| --- | --- | --- | --- | --- | --- | --- | --- | --- |
| CC(=O)Oc1ccccc1C(=O)O [Acetylsalicylicacid] + CCC[C@@H]1C[C@@H](C(=O)N[C@@H]([C@H]2O[C@H](SC)[C@H](O)[C@@H](O)[C@H]2O)[C@H](C)Cl)N(C)C1 [Clindamycin] | 0.0404 | 0.0829 | 0.0574 | -0.105 |  |  |  |  |
| CC1(C)S[C@@H]2[C@H](NC(=O)Cc3ccccc3)C(=O)N2[C@H]1C(=O)O [PenicillinG] + Cc1cc(NS(=O)(=O)c2ccc(N)cc2)no1 [Sulfamethoxazol] | 0.0445 | 0.0475 | -0.0626 | -0.0954 |  |  |  |  |
| CC(=O)Oc1ccccc1C(=O)O [Acetylsalicylicacid] + C1=CC(=CC(=C1)Cl)NN=C(C#N)C#N [CCCP] | -0.0436 | -0.0296 | -0.138 | -0.161 |  |  |  |  |
| CC(=O)Oc1ccccc1C(=O)O [Acetylsalicylicacid] + CC[C@H]1OC(=O)[C@H](C)C(=O)[C@H](C)[C@@H](O[C@@H]2O[C@H](C)C[C@H](N(C)C)[C@H]2O)[C@](C)(OC)C[C@@H](C)C(=O)[C@H](C)[C@H]2N(CCCCn3cnc(-c4cccnc4)c3)C(=O)O[C@]12C [Telithromycin] | 0.205 | 0.0539 | 0.0695 | -0.043 |  |  |  |  |
| CO/N=C(\C(=O)N[C@@H]1C(=O)N2C(C(=O)O)=C(COC(N)=O)CS[C@H]12)c1ccco1 [Cefuroxime] + N[C@@H]1CONC1=O [CycloserineD] | -0.0514 | -0.0647 | 0.114 | 0.0839 |  |  |  |  |
| CN(C)[C@@H]1C(O)=C(C(N)=O)C(=O)[C@@]2(O)C(O)=C3C(=O)c4c(O)ccc(Cl)c4[C@@](C)(O)[C@H]3C[C@@H]12 [Clortetracycline] + CC(C1CCC(C(O1)OC2C(CC(C(C2O)OC3C(C(C(CO3)(C)O)NC)O)N)N)N)NC [Gentamicin] |  |  |  |  | 0.181 | 0.141 | 0.0919 | -0.183 |
| N#CC(C#N)=NNc1cccc(Cl)c1 [CCCP] + CO[C@@]12[C@H](COC(N)=O)C3=C(C(=O)C(C)=C(N)C3=O)N1C[C@@H]1N[C@@H]12 [MitomycinC] | -0.051 | -0.0345 | -0.0844 | -0.0605 |  |  |  |  |
| CC(=O)Oc1ccccc1C(=O)O [Acetylsalicylicacid] + COc1ccc(C[C@H](N)C(=O)N[C@H]2[C@@H](O)[C@H](n3cnc4c(N(C)C)ncnc43)O[C@@H]2CO)cc1 [Puromycin] | 0.0812 | -0.0494 | 0.0722 | 0.149 |  |  |  |  |
| COc1cccc2c1C(=O)c1c(O)c3c(c(O)c1C2=O)C[C@@](O)(C(=O)CO)C[C@@H]3O[C@H]1C[C@H](N)[C@H](O)[C@H](C)O1 [Doxorubicin] + CC[C@H]1OC(=O)[C@H](C)C(=O)[C@H](C)[C@@H](O[C@@H]2O[C@H](C)C[C@H](N(C)C)[C@H]2O)[C@](C)(OC)C[C@@H](C)C(=O)[C@H](C)[C@H]2N(CCCCn3cnc(-c4cccnc4)c3)C(=O)O[C@]12C [Telithromycin] | 0.0872 | 0.0489 | -0.0292 | -0.0361 |  |  |  |  |
| CC(=O)Oc1ccccc1C(=O)O [Acetylsalicylicacid] + CO/N=C(\C(=O)N[C@@H]1C(=O)N2C(C(=O)O)=C(COC(N)=O)CS[C@H]12)c1ccco1 [Cefuroxime] | 0.177 | 0.0943 | -0.628 | 0.057 |  |  |  |  |
| CC(=O)Oc1ccccc1C(=O)O [Acetylsalicylicacid] + CCCCCCCCCC(=O)N[C@@H]1[C@H]([C@@H]([C@H](O[C@H]1OC2=C3C=C4C=C2OC5=C(C=C(C=C5)[C@H]([C@H]6C(=O)N[C@@H](C7=C(C(=CC(=C7)O)OC8[C@H]([C@H]([C@@H]([C@H](O8)CO)O)O)O)C9=C(C=CC(=C9)[C@H](C(=O)N6)NC(=O)[C@@H]4NC(=O)[C@@H]1C2=CC(=CC(=C2)OC2=C(C=CC(=C2)[C@H](C(=O)N[C@H](CC2=CC(=C(O3)C=C2)Cl)C(=O)N1)N)O)O)O)C(=O)O)O[C@H]1[C@@H]([C@H]([C@@H]([C@H](O1)CO)O)O)NC(=O)C)Cl)CO)O)O [Teicoplanin] |  |  |  |  | 0.206 | -0.0656 | 0.0851 | -0.045 |
| CC(=O)Oc1ccccc1C(=O)O [Acetylsalicylicacid] + O=C1CN(/N=C/c2ccc([N+](=O)[O-])o2)C(=O)N1 [Nitrofurantoin] | -0.202 | -0.0905 | -0.0978 | 0.0904 |  |  |  |  |
| COc1cccc2c1C(=O)c1c(O)c3c(c(O)c1C2=O)C[C@@](O)(C(=O)CO)C[C@@H]3O[C@H]1C[C@H](N)[C@H](O)[C@H](C)O1 [Doxorubicin] + CN[C@H](CC(C)C)C(=O)N[C@H]1C(=O)N[C@@H](CC(N)=O)C(=O)N[C@H]2C(=O)N[C@H]3C(=O)N[C@H](C(=O)N[C@H](C(=O)O)c4cc(O)cc(O)c4-c4cc3ccc4O)[C@H](O[C@H]3C[C@](C)(N)[C@@H](O)[C@H](C)O3)c3ccc(c(Cl)c3)Oc3cc2cc(c3O[C@@H]2O[C@H](CO)[C@@H](O)[C@H](O)[C@H]2O[C@H]2C[C@](C)(NCc3ccc(-c4ccc(Cl)cc4)cc3)[C@@H](O)[C@H](C)O2)Oc2ccc(cc2Cl)[C@H]1O [Oritavancin] | -0.0288 | 0.114 | 0.0678 | 0.0571 |  |  |  |  |
| CN(C)[C@@H]1C(O)=C(C(N)=O)C(=O)[C@@]2(O)C(O)=C3C(=O)c4c(O)ccc(Cl)c4[C@@](C)(O)[C@H]3C[C@@H]12 [Clortetracycline] + CN(C)c1cc(NC(=O)CNC(C)(C)C)c(O)c2c1C[C@H]1C[C@H]3[C@H](N(C)C)C(O)=C(C(N)=O)C(=O)[C@@]3(O)C(O)=C1C2=O [Tigecycline] | 0.0768 | -0.0522 | -0.14 | -0.0325 |  |  |  |  |
| CO/N=C(\C(=O)N[C@@H]1C(=O)N2C(C(=O)O)=C(COC(C)=O)CS[C@H]12)c1csc(N)n1 [Cefotaxime] + N[C@@H]1CONC1=O [CycloserineD] | 0.0869 | 0.0643 | 0.0848 | -0.0787 |  |  |  |  |
| CC(=O)Oc1ccccc1C(=O)O [Acetylsalicylicacid] + C[C@@H]1O[C@@H]1P(=O)(O)O [Fosfomycin] | -0.291 | -0.0772 | 0.0721 | 0.119 |  |  |  |  |
